Structures can show the parent of a compound that is named as a salt.
melting point: 138 to 145 °C
SMILES: CN(C(=O)[C@@H](Cc1ccc2ccccc2c1)N(C)C(=O)/C=C/CC(C)(C)N)[C@@H](CNC(=S)NC1CC1)Cc1ccccc1 (as salt: trifluoroacetic acid salt)

Source: US6555570B2, “Compounds with growth hormone releasing properties” (Novo Nordisk A/S, priority 1995, dated 2003)
